The values below come from paper PMC7179183, “Design of Biphenyl-Substituted Diarylpyrimidines with a Cyanomethyl Linker as HIV-1 NNRTIs via a Molecular Hybridization Strategy” (Molecules, 2020).

For orientation: EC50 means the concentration needed to bring the measured effect to its halfway point. For orientation: IC50 means the concentration that inhibits the measured activity by half.

The subject of one data set is WT HIV-1 (strain IIIB). Briefly: microbe, parasite or virus in culture. It is filed as cell-based. The method, then:
(§1) The newly synthesized compounds were evaluated for their potency and cytotoxicity against the WT HIV-1 (strain IIIB) in MT-4 cells using the MTT method. The biological evaluation results are represented as EC50 values (anti-HIV-1 activity), CC50 values (cytotoxicity), and SI values (selectivity index, CC50/EC50 ratio).

A further data set has as its system MT-4 cells. Kind of data set: Cytotoxicity in uninfected MT-4 cells, MTT method. It is filed as cell-based. Conditions: uninfected MT-4 cells; viability reduced by 50%. On the procedure:
as §1

The test system of data set [1] is L100I mutant HIV-1 strain. Kind of data set: Anti-HIV-1 activity against L100I mutant strain in MT-4 cells. It is filed as cell-based.
The test system of data set [2] is E138K mutant HIV-1 strain. Kind of data set: Anti-HIV-1 activity against E138K mutant strain in MT-4 cells. It is filed as cell-based.
The test system of data set [3] is Y181C mutant HIV-1 strain. Briefly: Anti-HIV-1 activity against Y181C mutant strain in MT-4 cells. The data set is classed as cell-based.
For data set [4], the system named is K103N mutant HIV-1 strain. Kind of data set: Anti-HIV-1 activity against K103N mutant strain in MT-4 cells. The data set is classed as cell-based.
The subject of data set [5] is Y188L mutant HIV-1 strain. Kind of data set: Anti-HIV-1 activity against Y188L mutant strain in MT-4 cells. It is filed as cell-based.
The subject of data set [6] is F227L + V106A double RT mutant HIV-1 strain. Briefly: Anti-HIV-1 activity against F227L + V106A double mutant strain in MT-4 cells. It is filed as cell-based.
In data set [7] the test system is K103N + Y181C double RT mutant HIV-1 strain. Kind of data set: Anti-HIV-1 activity against K103N + Y181C double mutant strain in MT-4 cells. It is filed as cell-based.
The target in another data set is WT HIV-1 RT (Human immunodeficiency virus type 1 group M subtype B, UniProt P03366). Briefly: Enzymatic assay against WT HIV-1 RT. Particulars: read-out: IC50 WT HIV-1 RT polymerase activity.
The next data set concerns WT HIV-1. Conditions: cited from earlier work.
For data set [8] the following is noted: cited from earlier work.
Data set [9] can be described thus: Cytotoxicity in uninfected MT-4 cells, MTT method. Particulars: human. It is filed as cell-based. On the procedure:
as §1
For orientation: Formazan colour is commonly taken as a measure of viable cells.

[10] abbreviates: MT-4 cells, protection against virus-induced cytopathicity by 50%, mean of at least three experiments, read-out: EC50 HIV-1 IIIB.
[11] abbreviates: MT-4 cells, read-out: EC50 L100I.
The mark [12] stands for this setting: MT-4 cells, read-out: EC50 E138K.
Setting [13] is: MT-4 cells, read-out: EC50 Y181C.
Setting [14] is: MT-4 cells, read-out: EC50 K103N.
Where [15] appears, read: MT-4 cells, read-out: EC50 Y188L.
[16] abbreviates: MT-4 cells, read-out: EC50 F227L + V106A.
The mark [17] stands for this setting: MT-4 cells, read-out: EC50 K103N + Y181C.
[18] abbreviates: Human immunodeficiency virus 1, IIIB, MT4, MT-4 cells, protection against virus-induced cytopathicity by 50%, mean of at least three experiments, read-out: EC50 HIV-1 IIIB.
The mark [19] stands for this setting: Human immunodeficiency virus 1, MT4, read-out: EC50 L100I.
Where [20] appears, read: Human immunodeficiency virus 1, MT4, read-out: EC50 E138K.
Setting [21] is: Human immunodeficiency virus 1, MT4, read-out: EC50 Y181C.
Setting [22] is: Human immunodeficiency virus 1, MT4, read-out: EC50 K103N.
The mark [23] stands for this setting: Human immunodeficiency virus 1, MT4, read-out: EC50 Y188L.
[24] abbreviates: Human immunodeficiency virus 1, MT4, read-out: EC50 F227L + V106A.
The mark [25] stands for this setting: Human immunodeficiency virus 1, MT4, read-out: EC50 K103N + Y181C.
Where [26] appears, read: uninfected MT-4 cells, viability reduced by 50%, read-out: CC50.
Setting [27] is: statement in the introduction, no reference given.

Read-outs that look alike come from different tables or passages of the source.

Description for WT HIV-1 RT: The enzymatic assay against WT HIV-1 RT was conducted for most compounds (Table 2).

For the compound `N#Cc1ccc(Nc2nccc(C(C#N)c3ccc(-c4cccc(F)c4)cc3F)n2)cc1` (racemic) [Compound 10k, (±)-4-((4-(cyano(3,3′-difluoro-[1,1′-biphenyl]-4-yl)methyl)pyrimidin-2-yl)amino)benzonitrile], the EC50 was 560 ± 190 nM with WT HIV-1 (strain IIIB) (setting [10]); 9290 ± 570 nM in data set [1] (setting [11]); 3360 ± 400 nM in data set [2] (setting [12]); 9150 ± 870 nM in [3] (setting [13]); more than 30700 nM in data set [4] (setting [14]); more than 30700 nM in data set [5] (setting [15]). Further, the EC50 in data set [6] (setting [16]) and in [7] (setting [17]) was more than 30700 nM in each case. The compound also returned a CC50 with MT-4 cells of 30700 ± 1790 nM. Besides, at WT HIV-1 RT, the IC50 was 188 ± 172 nM.

Take `N#Cc1ccc(Nc2nccc(C(C#N)c3ccc(-c4ccccc4Cl)cc3F)n2)cc1` (racemic) [Compound 10m, (±)-4-((4-((2′-chloro-3-fluoro-[1,1′-biphenyl]-4-yl)(cyano)methyl)pyrimidin-2-yl)amino)benzonitrile]: the EC50 was 280 ± 40 nM in the data set with WT HIV-1 (strain IIIB) (setting [10]); 5610 ± 1510 nM in [1] (setting [11]); 2430 ± 500 nM in data set [2] (setting [12]); 4530 ± 1470 nM in data set [3] (setting [13]); 5340 ± 930 nM in [4] (setting [14]); more than 22500 nM in [5] (setting [15]). Besides, the EC50 in data set [6] (setting [16]) and in data set [7] (setting [17]) was more than 22500 nM in each case. This compound displayed a CC50 with MT-4 cells of 22500 ± 4700 nM. The IC50 at WT HIV-1 RT is 74 ± 24 nM.

Turning to `Cc1cc(C(C#N)c2ccccc2F)nc(Nc2ccc(C#N)cc2)n1` (stereo not shown) [Compound 1], in the data set on WT HIV-1 (read-out: EC50 anti-HIV potency), the EC50 was 1.8 nM.

As to `Cc1cc(-c2ccc(C#N)cc2)cc(C)c1Nc1ccnc(Nc2ccc(C#N)cc2)n1` [Compound 2], the EC50 in the data set on WT HIV-1 (read-out: EC50 WT HIV-1) is 1 ± 0.6 nM. Besides, in data set [8] (lead compound), the CC50 was 2100 nM.

As to `Nc1ccn([C@@H]2CS[C@H](CO)O2)c(=O)n1` [Compound 3TC, lamivudine, reference compound], the EC50 with WT HIV-1 (strain IIIB) (setting [18]) stood at 7880 ± 3150 nM; in data set [1] (setting [19]), 1960 ± 290 nM; in data set [2] (setting [20]) it was 5060 ± 900 nM; in data set [3] (setting [21]) it was 4740 ± 1310 nM; in data set [4] (setting [22]) it was 3980 ± 760 nM; in [5] (setting [23]), 3420 ± 950 nM. Also, the EC50 was 2690 ± 870 nM in [6] (setting [24]) and 5500 ± 1310 nM in data set [7] (setting [25]). Moreover, the CC50 in data set [9] is more than 87200 nM.

On to `Cc1cc(C#N)cc(C)c1Oc1nc(Nc2ccc(C#N)cc2)nc(N)c1Br` [ETR, etravirine, reference compound], for which the half-maximal effective concentration (EC50) was 4.5 ± 1 nM with WT HIV-1 (strain IIIB) (Human immunodeficiency virus 1, MT4, read-out: EC50 HIV-1 IIIB); 8 ± 2 nM in data set [1] (setting [19]); 8 ± 4 nM in [2] (setting [20]); 17 ± 3 nM in data set [3] (setting [21]); 3 ± 1 nM in data set [4] (setting [22]); 17 ± 6 nM in data set [5] (setting [23]). The EC50 in data set [6] (setting [24]) is 14 ± 5 nM; in data set [7] (setting [25]), 40 ± 10 nM. Also, the CC50 is more than 4600 nM in data set [9] (setting [26]) and approximately 6000 nM in [8] (setting [27]).

On to `Cc1ccnc2c1NC(=O)c1cccnc1N2C1CC1` [NVP, nevirapine, reference compound], for which the EC50 was 200 ± 100 nM with WT HIV-1 (strain IIIB) (setting [18]); 980 ± 390 nM in data set [1] (setting [19]); 200 ± 150 nM in [2] (setting [20]); 6070 ± 1550 nM in [3] (setting [21]); 4700 ± 630 nM in data set [4] (setting [22]); not below 4620 nM in data set [5] (setting [23]). The EC50 in [6] (setting [24]) was not below 4280 nM; in [7] (setting [25]) it was more than 15000 nM. For the same compound, the CC50 in data set [9] (setting [26]) is more than 15000 nM.

As for `Cc1cc(/C=C/C#N)cc(C)c1Nc1ccnc(Nc2ccc(C#N)cc2)n1` [RPV, rilpivirine, reference compound], the EC50 is 1.6 ± 0.3 nM with WT HIV-1 (strain IIIB) (setting [18]); 2 ± 1 nM in data set [1] (setting [19]); 3 ± 1 nM in [2] (setting [20]); 3 ± 1 nM in data set [3] (setting [21]); 1 ± 0.2 nM in data set [4] (setting [22]); 30 ± 9 nM in [5] (setting [23]). The concentration for a half-maximal effect (EC50) in data set [6] (setting [24]) was found to be 44 ± 12 nM; in data set [7] (setting [25]), 9 ± 2 nM. Further, the CC50 in [9] (setting [26]) was 5890 ± 310 nM; in data set [8] (setting [27]), approximately 6000 nM.
